Reference: patent US11312727B1, “Macrocyclic flu endonuclease inhibitors” (Janssen BioPharma, Inc., priority 2018, dated 2022)
Like-named read-outs stand apart in the source and are kept apart here.

Assays:
[1] = test system: Influenza strain A549 A/WSN/33 (H1N1); test: microbe, parasite or virus in culture; format: cell-based; conditions: A549 cells, influenza A/WSN/33 (H1N1), 20 hours incubation, read-out: A549_A(H1N1) EC50
[2] = test system: Human lung carcinoma A549 cells; conditions: uninfected A549 cells, CellTiter-Glo
[3] = molecular target: EN PA (full length recombinant PA endonuclease) (Influenza A virus (strain A/Wilson-Smith/1933 H1N1) (Influenza A virus (strain A/WS/1933 H1N1)), UniProt P15659); test: biochemical; conditions: full length EN PA 1 to 10 nM, 50 nM FRET probe; mean of a minimum of two independent experiments; read-out: FRET_ _IC50
[4] = in vitro; conditions: human, CC50, uninfected A549 cells, CellTiter-Glo

CCC1C=CCOc2ccccc2C(c2ccccc2)N2CN1C(=O)c1c(OCc3ccccc3)c(=O)ccn12 (centres unmarked)
ring closure, yield of all isomers (from C=CCOc1ccccc1C(c1ccccc1)N1CN(C(C=C)CC)C(=O)c2c(OCc3ccccc3)c(=O)ccn21, rcm bond, Hoveyda-Grubbs catalyst 2nd generation, DCE, […], 80.0 °C, 2.0 h): 62.5%

O=C1CCN2CN(C(c3ccccc3)c3ccccc3CN1)n1ccc(=O)c(OCc3ccccc3)c1C2=O (centres unmarked)
ring closure, yield of all isomers (from NCc1ccccc1C(c1ccccc1)N1CN(CCC(=O)O)C(=O)c2c(OCc3ccccc3)c(=O)ccn21, amide bond, HATU, DMF, […], 80.0 °C): 51.7%

O=C1c2c(OCc3ccccc3)c(=O)ccn2N2CN1C1(C=CCOc3c(ccc(F)c3F)C2c2ccccc2)CCC1 (centres unmarked)
ring closure, yield of all isomers (from C=CCOc1c(C(c2ccccc2)N2CN(C3(C=C)CCC3)C(=O)c3c(OCc4ccccc4)c(=O)ccn32)ccc(F)c1F, rcm bond, Hoveyda-Grubbs II, dichloroethane, 12.05 mM, 100.0 °C, 6.0 h): 40.7%

O=C1c2c(OCc3ccccc3)c(=O)ccn2N2CN1CC1CC1COc1ccccc1C2c1ccccc1 (centres unmarked)
ring closure, yield of all isomers (from O=C1c2c(OCc3ccccc3)c(=O)ccn2N(C(c2ccccc2)c2ccccc2O)CN1CC1CC1CBr, ether bond, K2CO3, CH3CN, 44.8 mM, […], 0.5 h): 55.8%

O=C1c2c(OCc3ccccc3)c(=O)ccn2N2CN1CC=CCCOc1cccc(c1)C2c1ccccc1 (centres unmarked)
ring closure, yield of all isomers (from C=CCCOc1cccc(C(c2ccccc2)N2CN(CC=C)C(=O)c3c(OCc4ccccc4)c(=O)ccn32)c1, rcm bond, Hoveyda-Grubbs 2nd generation, DCE, 12.1 mM, 90.0 °C, […]): 8.9%

O=C1c2c(OCc3ccccc3)c(=O)ccn2N2CN1CC=CCOc1c(F)cccc1C2c1cccc(F)c1 (centres unmarked)
ring closure, yield of all isomers (from C=CCOc1c(F)cccc1C(c1cccc(F)c1)N1CN(CC=C)C(=O)c2c(OCc3ccccc3)c(=O)ccn21, rcm bond, Hoveyda-Grubbs second generation catalyst, DCE, 19.6 mM, 80.0 °C, 2.0 h): 13.6%

O=C1c2c(OCc3ccccc3)c(=O)ccn2N2CN1CC=CCOc1cccc3c1C2c1ccccc1SC3 (centres unmarked)
ring closure, yield of all isomers (from C=CCOc1cccc2c1C(N1CN(CC=C)C(=O)c3c(OCc4ccccc4)c(=O)ccn31)c1ccccc1SC2, rcm bond, Hoveyda-Grubbs catalyst 2nd generation, DCE, 16.04 mM, 80.0 °C, […]): 15%

O=C1c2c(OCc3ccccc3)c(=O)ccn2N2CN1CC=CCOc1ccccc1C2c1ccccc1 (centres unmarked)
ring closure, yield of all isomers (from C=CCOc1ccccc1C(c1ccccc1)N1CN(CC=C)C(=O)c2c(OCc3ccccc3)c(=O)ccn21, rcm bond, Hoveyda-Grubbs 2nd generation, DCE, […], 80.0 °C, 2.0 h): 21.4%

O=C1c2c(OCc3ccccc3)c(=O)ccn2N2CN1CC=CCOc1ccccc1C2c1ccccn1 (centres unmarked)
ring closure, yield of all isomers (from C=CCOc1ccccc1C(c1ccccn1)N1CN(CC=C)C(=O)c2c(OCc3ccccc3)c(=O)ccn21, rcm bond, Hoveyda-Grubbs catalyst 2nd generation, DCE, 14.6 mM, 80.0 °C, 2.0 h): 9.7%

O=C1c2c(OCc3ccccc3)c(=O)ccn2N2CN1CCC=CCOc1cccc3c1C2c1ccccc1SC3 (centres unmarked)
ring closure, yield of all isomers (from C=CCCN1CN(C2c3ccccc3SCc3cccc(OCC=C)c32)n2ccc(=O)c(OCc3ccccc3)c2C1=O, rcm bond, Hoveyda-Grubbs catalyst 2nd generation, DCE, 13.86 mM, 80.0 °C, […]): 19.8%

O=C1c2c(OCc3ccccc3)c(=O)ccn2N2CN1CCC=CCc1ccccc1C2c1ccccc1 (centres unmarked)
ring closure, yield of all isomers (from C=CCCN1CN(C(c2ccccc2)c2ccccc2CC=C)n2ccc(=O)c(OCc3ccccc3)c2C1=O, rcm bond, Hoveyda-Grubbs 2nd generation, DCE, 12.7 mM, 80.0 °C, 3.0 h): 69.2%

O=C1c2c(O)c(=O)ccn2N2CN1C/C=C\CCc1ccccc1C2c1ccncc1 (single isomer, unassigned) [Compound 52A, (16*R,*Z)-4-hydroxy-16-(pyridin-4-yl)-7,10,11,16-tetrahydro-6,17-methanobenzo[k]pyrido[1,2-b][1,2,5]triazacyclotridecine-3,5-dione]
EC50 [1]: > 1000 nM
CC50 [2]: > 2000 nM

O=C1c2c(O)c(=O)ccn2N2CN1C/C=C\CCc1ccccc1C2c1ccncc1 (single isomer, unassigned) [Compound 52B, (16*S,*Z)-4-hydroxy-16-(pyridin-4-yl)-7,10,11,16-tetrahydro-6,17-methanobenzo[k]pyrido[1,2-b][1,2,5]triazacyclotridecine-3,5-dione]
EC50 [1]: 84 nM
CC50 [2]: > 2000 nM

O=C1c2c(O)c(=O)ccn2N2CN1CCCCCOc1cccc3c1[C@@H]2c1ccccc1SC3 (single isomer, unassigned) [Compound 69A, (23b*R)-6-hydroxy-10,11,12,13,18,23b-hexahydro-9H-1,8-methano[1]benzothiepino[5,4,3-lm]pyrido[2,1-i][1,7,10,11]benzoxatriazacyclotetradecine-5,7-dione]
EC50 [1]: > 1000 nM
CC50 [2]: > 2000 nM

O=C1c2c(O)c(=O)ccn2N2CN1CCCCCOc1cccc3c1[C@H]2c1ccccc1SC3 (single isomer, unassigned) [Compound 69B, (23b*S)-6-hydroxy-10,11,12,13,18,23b-hexahydro-9H-1,8-methano[1]benzothiepino[5,4,3-lm]pyrido[2,1-i][1,7,10,11]benzoxatriazacyclotetradecine-5,7-dione]
EC50 [1]: 27 nM
CC50 [2]: > 2000 nM

O=C1c2c(O)c(=O)ccn2N2CN1C/C=C/CCc1c(F)cccc1C2c1cccc(F)n1 (single isomer, unassigned) [Compound 76A, (16*R,E)-12-fluoro-16-(6-fluoropyridin-2-yl)-4-hydroxy-7,10,11,16-tetrahydro-6,17-methanobenzo[k]pyrido[1,2-b][1,2,5]triazacyclotridecine-3,5-dione]
EC50 [1]: 3590 nM
CC50 [2]: 43900 nM

O=C1c2c(O)c(=O)ccn2N2CN1C/C=C/CCc1c(F)cccc1C2c1cccc(F)n1 (single isomer, unassigned) [Compound 76B, (16*S,E)-12-fluoro-16-(6-fluoropyridin-2-yl)-4-hydroxy-7,10,11,16-tetrahydro-6,17-methanobenzo[k]pyrido[1,2-b][1,2,5]triazacyclotridecine-3,5-dione]
EC50 [1]: 6 nM
CC50 [2]: > 200 nM

O=C1c2c(O)c(=O)ccn2N2CN1C/C=C/CCc1ccccc1C2c1cccc(F)n1 (single isomer, unassigned) [Compound 78A, (16*R,E)-16-(6-fluoropyridin-2-yl)-4-hydroxy-7,10,11,16-tetrahydro-6,17-methanobenzo[k]pyrido[1,2-b][1,2,5]triazacyclotridecine-3,5-dione]
EC50 [1]: 19 nM
CC50 [2]: > 1000 nM

CC1CCCCc2ccccc2C(c2ccccc2)N2CN1C(=O)c1c(O)c(=O)ccn12 (centres unmarked) [Compound 13, 4-hydroxy-7-methyl-15-phenyl-8,9,10,15-tetrahydro-7H-6,16-methanobenzo[j]pyrido[1,2-b][1,2,5]triazacyclododecine-3,5-dione]
EC50 ([1]; Influenza A virus, A549, 20 h): 19 nM
IC50 [3]: 46 nM
CC50 [4]: > 2000 nM

CC[C@@H]1/C=C/COc2c(ccc(F)c2F)[C@@H](c2ccccc2)N2CN1C(=O)c1c(O)c(=O)ccn12 [Compound 101AB, (9R,18R,E)-9-ethyl-3,4-difluoro-12-hydroxy-18-phenyl-6,9-dihydro-18H-10,17-methanobenzo[b]pyrido[1,2-f][1]oxa[5,6,9]triazacyclotridecine-11,13-dione]
EC50 ([1]; Influenza A virus, A549, 20 h): 1.3 nM
CC50 [4]: > 200 nM

CC[C@H]1/C=C/COc2c(ccc(F)c2F)[C@H](c2ccccc2)N2CN1C(=O)c1c(O)c(=O)ccn12 [Compound 101BA, (9S,18S,E)-9-ethyl-3,4-difluoro-12-hydroxy-18-phenyl-6,9-dihydro-18H-10,17-methanobenzo[b]pyrido[1,2-f][1]oxa[5,6,9]triazacyclotridecine-11,13-dione]
EC50 ([1]; Influenza A virus, A549, 20 h): > 100 nM
CC50 [4]: > 200 nM

CC[C@@H]1/C=C/COc2c(ccc(F)c2F)[C@H](c2ccccc2)N2CN1C(=O)c1c(O)c(=O)ccn12 [Compound 101BB, (9R,18S,E)-9-ethyl-3,4-difluoro-12-hydroxy-18-phenyl-6,9-dihydro-18H-10,17-methanobenzo[b]pyrido[1,2-f][1]oxa[5,6,9]triazacyclotridecine-11,13-dione]
EC50 ([1]; Influenza A virus, A549, 20 h): 5030 nM
CC50 [4]: 29900 nM

O=C1c2c(O)c(=O)ccn2N2CN1C1(/C=C/COc3c(ccc(F)c3F)[C@H]2c2ccccc2)CC1 [Compound 102A, (18′R,E)-3′,4′-difluoro-12′-hydroxy-18′-phenyl-6′H,18′H-spiro[cyclopropane-1,9′-[10,17]methanobenzo[b]pyrido[1,2-f][1]oxa[5,6,9]triazacyclotridecine]-11′,13′-dione]
EC50 ([1]; Influenza A virus, A549, 20 h): 0.9 nM
CC50 [4]: > 100 nM

O=C1c2c(O)c(=O)ccn2N2CN1C1(/C=C/COc3c(ccc(F)c3F)[C@@H]2c2ccccc2)CC1 [Compound 102B, (18'S,E)-3′,4′-difluoro-12′-hydroxy-18′-phenyl-6′H,18′H-spiro[cyclopropane-1,9′-[10,17]methanobenzo[b]pyrido[1,2-f][1]oxa[5,6,9]triazacyclotridecine]-11′,13′-dione]
EC50 ([1]; Influenza A virus, A549, 20 h): 3360 nM
CC50 [4]: 33900 nM

O=C1c2c(O)c(=O)ccn2N2CN1C/C=C/COc1c(F)cccc1[C@@H]2c1ccccc1C1CC1 [Compound 123B, (18S,E)-18-(2-cyclopropylphenyl)-4-fluoro-12-hydroxy-6,9-dihydro-18H-10,17-methanobenzo[b]pyrido[1,2-f][1]oxa[5,6,9]triazacyclotridecine-11,13-dione]
EC50 ([1]; Influenza A virus, A549, 20 h): > 100 nM
CC50 [4]: > 200 nM

O=C1c2c(O)c(=O)ccn2N2CN1C1(/C=C/COc3c(ccc(F)c3F)[C@H]2c2ccccc2)CCC1 [Compound 146A, (18′R,E)-3′,4′-difluoro-12′-hydroxy-18′-phenyl-6′H,18′H-spiro[cyclobutane-1,9′-[10,17]methanobenzo[b]pyrido[1,2-f][1]oxa[5,6,9]triazacyclotridecine]-11′,13′-dione]
EC50 ([1]; Influenza A virus, A549, 20 h): 0.65 nM
CC50 [4]: > 100 nM

O=C1c2c(O)c(=O)ccn2N2CN1C1(/C=C/COc3c(ccc(F)c3F)[C@@H]2c2ccccc2)CCC1 [Compound 146B, (18'S,E)-3′,4′-difluoro-12′-hydroxy-18′-phenyl-6′H,18′H-spiro[cyclobutane-1,9′-[10,17]methanobenzo[b]pyrido[1,2-f][1]oxa[5,6,9]triazacyclotridecine]-11′,13′-dione]
EC50 ([1]; Influenza A virus, A549, 20 h): 340 nM
CC50 [4]: > 10000 nM
